Results taken from the supplement of paper PMC9938120.

What was measured:
Experiment in all cases: drug sensitivity score (DSS3, normalised partial AUC of % inhibition dose-response) (DSS (score)); higher = more sensitive (stronger inhibition of viability); extreme values may be limits of the assay
Conditions in all cases: 72 h; library: FO5A; assay format: 2D, 384-well, CellTiter-Glo
FMOC02_2 = system: FMOC02_2 (patient-derived low-grade serous ovarian cancer cells)
In short: (§1)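 Cells were dispensed onto 384-well flat clear-bottom plates already holding compounds at five concentrations over a 10,000-fold range, using patient-derived ovarian cancer cells at passage under 10. Incubation lasted 72 h at 37 °C in 5% CO2, after which CellTiter-Glo viability data were processed in Breeze. Higher drug sensitivity scores, each a partial area under the percent-inhibition dose-response curve divided by the log of the upper asymptote, mean more sensitive cells.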

FMOC02_3 = system: FMOC02_3 (patient-derived low-grade serous ovarian cancer cells)
In short: as §1

FMOC03 = system: FMOC03 (patient-derived mucinous ovarian cancer cells)
In short: as §1

FMOC06 = system: FMOC06 (patient-derived mucinous ovarian cancer cells)
In short: as §1

FMOC09 = system: FMOC09 (patient-derived high-grade serous ovarian cancer cells)
In short: as §1

FMOC14 = system: FMOC14 (patient-derived high-grade serous ovarian cancer cells)
In short: as §1

FMOC22 = system: FMOC22 (patient-derived mucinous ovarian cancer cells)
In short: as §1

FMOC24 = system: FMOC24 (patient-derived high-grade serous ovarian cancer cells)
In short: as §1

FMOC25_2 = system: FMOC25_2 (patient-derived low-grade serous ovarian cancer cells)
In short: as §1

NC(=O)/C(=C/n1cnc(-c2cc(C(F)(F)F)cc(C(F)(F)F)c2)n1)c1cncnc1 [Eltanexor]
drug sensitivity score (FMOC02_2): 16.2 | drug sensitivity score (FMOC02_3): 24.5 | drug sensitivity score (FMOC03): 12.5 | drug sensitivity score (FMOC06): 23 | drug sensitivity score (FMOC09): 13.3 | drug sensitivity score (FMOC14): 12.4 | drug sensitivity score (FMOC22): 16.5 | drug sensitivity score (FMOC24): 23.7 | drug sensitivity score (FMOC25_2): 23

C=CCn1c(=O)c2cnc(Nc3ccc(N4CCN(C)CC4)cc3)nc2n1-c1cccc(C(C)(C)O)n1 [AZD1775]
drug sensitivity score (FMOC02_2): 10.8 | drug sensitivity score (FMOC02_3): 17.5 | drug sensitivity score (FMOC03): 6.1 | drug sensitivity score (FMOC06): 8.5 | drug sensitivity score (FMOC09): 7.9 | drug sensitivity score (FMOC14): 14.6 | drug sensitivity score (FMOC22): 6.9 | drug sensitivity score (FMOC24): 8.15 | drug sensitivity score (FMOC25_2): 15.2

COc1cc2c(Nc3ccc(Cl)c(Cl)c3F)ncnc2cc1OC[C@@H]1C[C@@H]2CN(C)C[C@@H]2C1 [Tesevatinib]
drug sensitivity score (FMOC02_2): 20.6 | drug sensitivity score (FMOC02_3): 21 | drug sensitivity score (FMOC03): 18.9 | drug sensitivity score (FMOC06): 4.4 | drug sensitivity score (FMOC09): 16.3 | drug sensitivity score (FMOC14): 6.5 | drug sensitivity score (FMOC22): 2 | drug sensitivity score (FMOC24): 2.4 | drug sensitivity score (FMOC25_2): 18.5

Cc1sc2c(c1C)C(c1ccc(Cl)cc1)=N[C@@H](CC(=O)Nc1ccc(OCCOCCOCCOCCNc3cccc4c3C(=O)N(C3CCC(=O)NC3=O)C4=O)cc1)c1nnc(C)n1-2 (stereo partly drawn) [ARV-825]
drug sensitivity score (FMOC02_2): 7.1 | drug sensitivity score (FMOC02_3): 13 | drug sensitivity score (FMOC03): 4 | drug sensitivity score (FMOC06): 14.9 | drug sensitivity score (FMOC09): 8.3 | drug sensitivity score (FMOC14): 11.4 | drug sensitivity score (FMOC22): 3.6 | drug sensitivity score (FMOC24): 6 | drug sensitivity score (FMOC25_2): 17.1

CO[C@@H](C)Cn1c(=O)n(C)c2cnc3ccc(-c4cncc(C(C)(C)O)c4)cc3c21
drug sensitivity score (FMOC02_2): 15.3 | drug sensitivity score (FMOC02_3): 17 | drug sensitivity score (FMOC03): 9.2 | drug sensitivity score (FMOC06): 11 | drug sensitivity score (FMOC09): 7.4 | drug sensitivity score (FMOC14): 8.3 | drug sensitivity score (FMOC22): 9.1 | drug sensitivity score (FMOC24): 7.6 | drug sensitivity score (FMOC25_2): 15.7

CCNC(=O)C[C@@H]1N=C(c2ccc(Cl)cc2)c2cc(OC)ccc2-n2c(C)nnc21 [Molibresib]
drug sensitivity score (FMOC02_2): 6.9 | drug sensitivity score (FMOC02_3): 10.2 | drug sensitivity score (FMOC03): 3.4 | drug sensitivity score (FMOC06): 3.6 | drug sensitivity score (FMOC09): 2.1 | drug sensitivity score (FMOC14): 1.7 | drug sensitivity score (FMOC22): 3.1 | drug sensitivity score (FMOC24): 5 | drug sensitivity score (FMOC25_2): 5.6

C=CC(=O)N1CC/C(=C\c2ccc(F)c([N+](=O)[O-])c2)C(=O)/C(=C/c2ccc(F)c([N+](=O)[O-])c2)C1 [VLX1570]
drug sensitivity score (FMOC02_2): 22.3 | drug sensitivity score (FMOC02_3): 25 | drug sensitivity score (FMOC03): 15.2 | drug sensitivity score (FMOC06): 18.2 | drug sensitivity score (FMOC09): 23 | drug sensitivity score (FMOC14): 14.8 | drug sensitivity score (FMOC22): 10.7 | drug sensitivity score (FMOC24): 15.4 | drug sensitivity score (FMOC25_2): 14.7

Cn1c(Nc2ccc(C(F)(F)F)cc2)nc2cc(Oc3ccnc(-c4ncc(C(F)(F)F)[nH]4)c3)ccc21 [NVP-RAF265]
drug sensitivity score (FMOC02_2): 8 | drug sensitivity score (FMOC02_3): 12.7 | drug sensitivity score (FMOC03): 2 | drug sensitivity score (FMOC06): 0.8 | drug sensitivity score (FMOC09): 0 | drug sensitivity score (FMOC14): 1.6 | drug sensitivity score (FMOC22): 1.6 | drug sensitivity score (FMOC24): 2 | drug sensitivity score (FMOC25_2): 6.6

CC(C)n1nc(-c2ccc3oc(N)nc3c2)c2c(N)ncnc21 [Sapanisertib]
drug sensitivity score (FMOC02_2): 18.5 | drug sensitivity score (FMOC02_3): 20.3 | drug sensitivity score (FMOC03): 13.7 | drug sensitivity score (FMOC06): 12.9 | drug sensitivity score (FMOC09): 8.7 | drug sensitivity score (FMOC14): 9.5 | drug sensitivity score (FMOC22): 11.7 | drug sensitivity score (FMOC24): 7.7 | drug sensitivity score (FMOC25_2): 18.1

CCOc1ccccc1-n1c(C(C)N2CCN(C(=O)COc3ccc(Cl)cc3)CC2)nc2ccccc2c1=O (stereo not drawn) [Erastin]
drug sensitivity score (FMOC02_2): 0.3 | drug sensitivity score (FMOC02_3): 3.9 | drug sensitivity score (FMOC03): 6.1 | drug sensitivity score (FMOC06): 8 | drug sensitivity score (FMOC09): 2.2 | drug sensitivity score (FMOC14): 14.6 | drug sensitivity score (FMOC22): 0.2 | drug sensitivity score (FMOC24): 0.1 | drug sensitivity score (FMOC25_2): 4.7

CCCCCCCCCCCCCCCCOP(=O)([O-])OCC[N+](C)(C)C [Miltefosine]
drug sensitivity score (FMOC02_2): 5.5 | drug sensitivity score (FMOC02_3): 6.9 | drug sensitivity score (FMOC03): 5.6 | drug sensitivity score (FMOC06): 9.1 | drug sensitivity score (FMOC09): 8.4 | drug sensitivity score (FMOC14): 8.7 | drug sensitivity score (FMOC22): 10 | drug sensitivity score (FMOC24): 9.8 | drug sensitivity score (FMOC25_2): 5.1

CCN(CC)CCNC(=O)c1c(C)[nH]c(/C=C2\C(=O)Nc3ccc(-c4csc(-c5ccccc5)n4)cc32)c1C [Amcasertib]
drug sensitivity score (FMOC02_2): 1.6 | drug sensitivity score (FMOC02_3): 0 | drug sensitivity score (FMOC03): 1.2 | drug sensitivity score (FMOC06): 0.5 | drug sensitivity score (FMOC09): 0.3 | drug sensitivity score (FMOC14): 0.1 | drug sensitivity score (FMOC22): 2.7 | drug sensitivity score (FMOC24): 8.9 | drug sensitivity score (FMOC25_2): 0.1

CO[C@H]1CC[C@H](N2C(=O)CNc3ncc(-c4ccc(C(C)(C)O)nc4)nc32)CC1 [CC-223]
drug sensitivity score (FMOC02_2): 8.6 | drug sensitivity score (FMOC02_3): 9.2 | drug sensitivity score (FMOC03): 4 | drug sensitivity score (FMOC06): 5.1 | drug sensitivity score (FMOC09): 3.5 | drug sensitivity score (FMOC14): 3.5 | drug sensitivity score (FMOC22): 3 | drug sensitivity score (FMOC24): 2.4 | drug sensitivity score (FMOC25_2): 8.6

COc1cc2c(cc1OC(C)C)[C@H](c1ccc(Cl)cc1)N(c1ccc(N(C)C[C@H]3CC[C@H](N4CCN(C)C(=O)C4)CC3)cc1)C(=O)C2 [NVP-CGM097]
drug sensitivity score (FMOC02_2): 12.2 | drug sensitivity score (FMOC02_3): 18 | drug sensitivity score (FMOC03): 5.9 | drug sensitivity score (FMOC06): 5.5 | drug sensitivity score (FMOC09): 5.9 | drug sensitivity score (FMOC14): 6.3 | drug sensitivity score (FMOC22): 6.9 | drug sensitivity score (FMOC24): 8.6 | drug sensitivity score (FMOC25_2): 13

CC1(C)CC[C@]2(NC(=O)C(C)(F)F)CC[C@]3(C)[C@H](C(=O)C=C4[C@@]5(C)C=C(C#N)C(=O)C(C)(C)[C@@H]5CC[C@]43C)[C@@H]2C1 [Omaveloxolone]
drug sensitivity score (FMOC02_2): 9.3 | drug sensitivity score (FMOC02_3): 10 | drug sensitivity score (FMOC03): 18.7 | drug sensitivity score (FMOC06): 15.8 | drug sensitivity score (FMOC09): 14 | drug sensitivity score (FMOC14): 11.6 | drug sensitivity score (FMOC22): 15.9 | drug sensitivity score (FMOC24): 9.7 | drug sensitivity score (FMOC25_2): 13.9

Cc1sc2c(c1C)C(c1ccc(Cl)cc1)=N[C@@H](CC(=O)NCCCCNC(=O)COc1cccc3c1C(=O)N(C1CCC(=O)NC1=O)C3=O)c1nnc(C)n1-2 (stereo partly drawn) [dBET1]
drug sensitivity score (FMOC02_2): 8.8 | drug sensitivity score (FMOC02_3): 8.6 | drug sensitivity score (FMOC03): 4.5 | drug sensitivity score (FMOC06): 12.9 | drug sensitivity score (FMOC09): 4.5 | drug sensitivity score (FMOC14): 8.9 | drug sensitivity score (FMOC22): 3.8 | drug sensitivity score (FMOC24): 0.2 | drug sensitivity score (FMOC25_2): 0.3

Nc1cc(F)ccc1NC(=O)c1ccc(CNC(=O)/C=C/c2cccnc2)cc1 [Tucidinostat]
drug sensitivity score (FMOC02_2): 6.2 | drug sensitivity score (FMOC02_3): 5.5 | drug sensitivity score (FMOC03): 7.7 | drug sensitivity score (FMOC06): 8.1 | drug sensitivity score (FMOC09): 0.8 | drug sensitivity score (FMOC14): 7.4 | drug sensitivity score (FMOC22): 4.4 | drug sensitivity score (FMOC24): 9 | drug sensitivity score (FMOC25_2): 4.3
